Experimental data as given in paper PMC1903359, “Engineering of PA-IIL lectin from Pseudomonas aeruginosa – Unravelling the role of the specificity loop for sugar preference” (BMC Structural Biology, 2007).
Like-named read-outs stand apart in the source and are kept apart here.

Tests used:
PA-IIL wild type = conditions: cited from earlier work
RS-IIL = system: RS-IIL; set-up: method as in PMID 16768446; conditions: cited from earlier work
[1] = target: PA-IIL lectin from Pseudomonas aeruginosa, mutant S22A (Pseudomonas aeruginosa); test: crystal structure; mutants co-crystallised with fucose (hanging drop), soaked 24 h in 10 mM Me-α-D-Man or Me-α-L-Fuc; tetramer in the asymmetric unit
PA-IIL S22A = PA-IIL S22A (Pseudomonas aeruginosa, UniProt Q9HYN5, S23A); test: ITC binding of monosaccharides to PA-IIL mutant S22A; conditions: for -TΔS: calculated from ΔG and ΔH
PA-IIL S23A = PA-IIL S23A (Pseudomonas aeruginosa, UniProt Q9HYN5, S24A); test: ITC binding of monosaccharides to PA-IIL mutant S23A; conditions: ITC at 25°C
PA-IIL G24N = PA-IIL G24N (Pseudomonas aeruginosa, UniProt Q9HYN5, G25N); test: ITC binding of monosaccharides to PA-IIL mutant G24N; conditions: for ΔH / -TΔS: ITC at 25°C; for -TΔS: calculated from ΔG and ΔH
[2] = target: PA-IIL lectin from Pseudomonas aeruginosa, mutant S23A (Pseudomonas aeruginosa); test: crystal structure; mutants co-crystallised with fucose (hanging drop), soaked 24 h in 10 mM Me-α-D-Man or Me-α-L-Fuc; tetramer in the asymmetric unit
[3] = target: PA-IIL lectin from Pseudomonas aeruginosa, mutant G24N (Pseudomonas aeruginosa); test: as above
[4] = PA-IIL wild type, ITC at 25°C, ref Sabin, C. et al, 2006 [14]
[5] = ITC at 25°C, comparison data, Figure 7 gives ref 18

**Q.** What does the source list for `CO[C@@H]1O[C@@H](C)[C@@H](O)[C@@H](O)[C@@H]1O` [Me-α-L-Fuc, methyl α-L-fucopyranoside]?
**A.** -TΔS (PA-IIL wild type; [4]): 4.9 (± 1.0) kJ/mol; KA (PA-IIL wild type; [4]): 235 (± 8.0) ×10^4M^-1; Kd (PA-IIL wild type; [4]): 430 nM; ΔG (PA-IIL wild type; [4]): -36.4 (± 0.1) kJ/mol; ΔH (PA-IIL wild type; [4]): -41.3 (± 1.0) kJ/mol; entropic contribution TΔS (PA-IIL wild type; native (wild type) PA-IIL, sign as TΔS): -1.17 kcal/mol; KA (RS-IIL; footnote b: value < 10^4 M^-1): < 10000 M⁻¹; Kd (RS-IIL; footnote b): > 100000 nM

**Q.** With “PA-IIL lectin from Pseudomonas aeruginosa, mutant S22A (natural protein)” as the compound, how does the stoichiometry N [1] read?
**A.** 4

**Q.** Which “times higher affinity of the mutant compared to the wild type protein” value (PA-IIL S22A; S22A versus wild type PA-IIL) does the source give for `CO[C@H]1O[C@H](CO)[C@@H](O)[C@H](O)[C@@H]1O` [Me-β-D-Man, methyl α-D-mannopyranoside] here?
**A.** 25 times

**Q.** And the “total difference in free energy, mutant versus wild type” value (PA-IIL S22A; S22A versus wild type PA-IIL)?
**A.** -1.91 kcal/mol

**Q.** What about the “-TΔS” value (PA-IIL S22A; S22A, ITC at 25°C) of the same compound?
**A.** -7.4 (± 0.7) kJ/mol

**Q.** And the “favourable entropic contribution TΔS” value (PA-IIL S22A; S22A, sign as TΔS)?
**A.** 1.77 kcal/mol

**Q.** And the “-TΔS” value (RS-IIL; [5])?
**A.** -13.0 (± 0.2) kJ/mol

**Q.** What about the KA (RS-IIL; [5]) of the same compound?
**A.** 438 (± 2.0) ×10^4M^-1

**Q.** What about the Kd (RS-IIL; [5]) of the same compound?
**A.** 230 nM

**Q.** What about the ΔG (RS-IIL; [5]) of the same compound?
**A.** -37.9 (± 0.1) kJ/mol

**Q.** And the ΔH (PA-IIL S23A)?
**A.** -16.7 (± 2.3) kJ/mol

**Q.** And the KA (PA-IIL S23A; 0.1 M Tris-HCl, 30 μM CaCl2, pH 7.5)?
**A.** 1.91 (± 0.33) ×10^4M^-1

**Q.** What about the “-TΔS” value (PA-IIL S23A; calculated from ΔG and ΔH) of the same compound?
**A.** -7.7 (± 2.7) kJ/mol

**Q.** And the ΔH (PA-IIL G24N)?
**A.** -27.1 (± 0.8) kJ/mol

**Q.** What about the “-TΔS” value (PA-IIL G24N) of the same compound?
**A.** 2.1 (± 0.9) kJ/mol

**Q.** And the “entropic contribution as share of the total Gibbs energy change” value (PA-IIL G24N; unfavourable entropic contribution)?
**A.** 8%

**Q.** Which stoichiometry N [2] does the source give for “PA-IIL lectin from Pseudomonas aeruginosa, mutant S23A (natural protein)” here?
**A.** 4

**Q.** For “PA-IIL lectin from Pseudomonas aeruginosa, mutant G24N (natural protein)”, which stoichiometry N [3] is on record?
**A.** 4

**Q.** Which results are given for `CO[C@@H]1O[C@@H](CO)[C@@H](O)[C@@H](O)[C@@H]1O` [Me-α-L-Gal, methyl α-L-galactopyranoside]?
**A.** ΔH (PA-IIL S22A; S22A, ITC at 25°C): -19.2 (± 0.2) kJ/mol; -TΔS (PA-IIL S22A; S22A, ITC at 25°C): -8.3 (± 0.3) kJ/mol; -TΔS (PA-IIL wild type; [4]): -2.3 (± 0.7) kJ/mol; KA (PA-IIL wild type; [4]): 85.0 (± 5.0) ×10^4M^-1; Kd (PA-IIL wild type; [4]): 1170 nM; ΔH (PA-IIL wild type; [4]): -31.5 (± 0.6) kJ/mol; ΔH (PA-IIL S23A): -26.8 (± 1.7) kJ/mol; ΔH (PA-IIL G24N): -18.7 (± 0.3) kJ/mol; -TΔS (PA-IIL G24N): -15.0 (± 0.9) kJ/mol
